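48-hour exposure; five concentrations; linearly interpolated endpoints. Abbreviation: GI50, concentration required for 50% inhibition of growth.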 Activity calls are given as the source filed them. Cut-off read from the data, not from the text of the source: active = GI50 up to about 1.1 µM and inactive = higher.
Legend:
Test in all cases: inhibition of tumour cell growth, NCI panel, 48 h
DLD-1 = tested on: DLD-1
KM-20L2 = tested on: KM-20L2
XF498 = tested on: XF498
DMS-273 = tested on: DMS-273
RXF 631 = tested on: RXF 631
SNB-78 = tested on: SNB-78
LXFL 529 = tested on: LXFL 529
M19-MEL = tested on: M19-MEL
HOP-18 = tested on: HOP-18

SMILES | GI50 (DLD-1) | GI50 (KM-20L2) | GI50 (XF498) | GI50 (DMS-273) | GI50 (RXF 631) | GI50 (SNB-78) | GI50 (LXFL 529) | GI50 (M19-MEL) | GI50 (HOP-18)
O=C1c2ccccc2-c2cccc3ccc(Cc4ccccc4)c1c23 | > 100 µM (inactive) | > 100 µM (inactive) | > 100 µM (inactive) | > 100 µM (inactive) | > 100 µM (inactive) | > 100 µM (inactive) | > 100 µM (inactive) | > 100 µM (inactive) | 
CCCN1C(=O)C/C(=C\C(C)=O)Nc2ccccc21 | > 100 µM (inactive) |  | > 100 µM (inactive) | > 100 µM (inactive) |  | 80.2 µM (inactive) | > 100 µM (inactive) | > 100 µM (inactive) | 
Cc1ccc(S(=O)(=O)SC(C)(C)C)cc1 | 18.5 µM (inactive) |  | 15.6 µM (inactive) | 19.8 µM (inactive) | > 100 µM (inactive) | 51.2 µM (inactive) | 32.7 µM (inactive) | 33.8 µM (inactive) | > 100 µM (inactive)
O=c1cc2ccccc2nn1-c1ccccc1Cl | > 100 µM (inactive) | > 100 µM (inactive) | 27 µM (inactive) | 78.5 µM (inactive) |  | > 100 µM (inactive) |  | > 100 µM (inactive) | > 100 µM (inactive)
CN(C)CCCNc1ccnc2c([N+](=O)[O-])cccc12 |  | 4.36 µM (inactive) | 14.8 µM (inactive) | 14.7 µM (inactive) |  | 31.2 µM (inactive) |  | 2.44 µM (inactive) | 
N#C/N=C1\NCCC(=O)N1CCc1c[nH]c2ccccc12 | > 100 µM (inactive) |  | > 100 µM (inactive) | > 100 µM (inactive) |  | > 100 µM (inactive) | > 100 µM (inactive) | > 100 µM (inactive) | 
CN(C)CCC(/C=C/c1ccccc1)=N\Nc1ccc(Cl)cc1 | 2.88 µM (inactive) | 1.56 µM (inactive) |  | 2.11 µM (inactive) |  | 6.07 µM (inactive) | 2.84 µM (inactive) | 6.78 µM (inactive) | 4.69 µM (inactive)
O=C1/C(=N\O)S(=O)(=O)c2ccccc21 | > 100 µM (inactive) | 59.2 µM (inactive) |  | > 100 µM (inactive) | > 100 µM (inactive) | > 100 µM (inactive) | > 100 µM (inactive) | > 100 µM (inactive) | > 100 µM (inactive)
N=C(N)NS(=O)(=O)c1ccc(Nc2c3ccccc3nc3c(C(=O)Nc4ccc(S(N)(=O)=O)cc4)cccc23)cc1 | > 100 µM (inactive) | > 100 µM (inactive) | 25.3 µM (inactive) | > 100 µM (inactive) |  | 76.4 µM (inactive) | 26.8 µM (inactive) | > 100 µM (inactive) | > 100 µM (inactive)
COc1ccc2c(c1)OCCCN(C)OC2c1ccccc1 (stereo not drawn) |  | > 100 µM (inactive) |  | > 100 µM (inactive) |  | > 100 µM (inactive) | > 100 µM (inactive) | > 100 µM (inactive) | 
O=C(c1ccccc1)c1c(-c2ccccc2)sc2nc3ccccc3nc12 |  | > 100 µM (inactive) | > 100 µM (inactive) | > 100 µM (inactive) |  | 74 µM (inactive) |  | > 100 µM (inactive) | 
COC1=CC(=O)c2c(cc3c(c2O)-c2c(OC)cc4cc5c(c(O)c4c2OC(=O)CC(C)(O)C3)C(=O)CC(C)(O)C5)C1=O (stereo not drawn) | 2.63 µM (inactive) | 1.63 µM (inactive) | 1.37 µM (inactive) | 1.64 µM (inactive) |  | 1.85 µM (inactive) | 1.16 µM (inactive) | 0.379 µM (active) | 1.3 µM (inactive)
Cc1cc(=O)cc2sc3cc(Cl)ccc3nc1-2 | 6.49 µM (inactive) | 17.4 µM (inactive) | 4.28 µM (inactive) | 6.17 µM (inactive) |  | 17 µM (inactive) | 15.2 µM (inactive) | 16.3 µM (inactive) | 48.1 µM (inactive)
Cc1ccc(C(=O)/C=C/c2cccc([N+](=O)[O-])c2)cc1 | 44 µM (inactive) | 36.6 µM (inactive) |  | > 83.4 µM (inactive) | > 73.8 µM (inactive) | > 100 µM (inactive) | 37.8 µM (inactive) | > 44.6 µM (inactive) | > 100 µM (inactive)
Cc1cc([N+](=O)[O-])ccc1Nc1cccc(Cl)c1C | 14.6 µM (inactive) | 14 µM (inactive) |  | 14.6 µM (inactive) | 16.2 µM (inactive) |  | 14.4 µM (inactive) | 16.5 µM (inactive) | 14 µM (inactive)
CC1=Nc2c(O)nc(S)nc2NC(c2c(Cl)cccc2Cl)C1 (stereo not drawn) | 2.42 µM (inactive) | 4.23 µM (inactive) | 3.1 µM (inactive) | 1.95 µM (inactive) | 5.75 µM (inactive) | 4.43 µM (inactive) | 2.96 µM (inactive) | 1.48 µM (inactive) | 15.2 µM (inactive)
O=C(OC1CCC2OOC1O2)c1ccc([N+](=O)[O-])cc1 (stereo not drawn) |  | > 100 µM (inactive) |  | > 100 µM (inactive) |  | > 100 µM (inactive) |  | > 100 µM (inactive) | 
ClCCCCOC1CCCCO1 (stereo not drawn) | > 100 µM (inactive) | > 100 µM (inactive) | > 100 µM (inactive) | > 100 µM (inactive) |  | > 100 µM (inactive) | > 100 µM (inactive) | > 100 µM (inactive) | > 100 µM (inactive)
COC(=O)C(=O)C(C#N)c1c(Cl)cccc1Cl (stereo not drawn) | > 100 µM (inactive) | > 100 µM (inactive) | > 100 µM (inactive) | > 100 µM (inactive) | > 100 µM (inactive) | > 100 µM (inactive) | > 100 µM (inactive) | > 100 µM (inactive) | 
C[n+]1c2ccccc2c(/C=N\NS(=O)(=O)c2ccc(O)c(C(=O)O)c2)c2ccccc21 | 58.7 µM (inactive) | 53.6 µM (inactive) | 14.9 µM (inactive) | 35.6 µM (inactive) | 31.6 µM (inactive) | > 100 µM (inactive) |  | 99.8 µM (inactive) | 
O=C1C2Cc3ccccc3CN2C(=O)N1CCN1CCOCC1 (stereo not drawn) | > 100 µM (inactive) | > 100 µM (inactive) |  | > 100 µM (inactive) | > 100 µM (inactive) |  | > 100 µM (inactive) | > 100 µM (inactive) | 
COC(=O)C1C=CCON2CCc3c(n(C)c4ccccc34)C12 (stereo not drawn) | > 100 µM (inactive) | > 100 µM (inactive) | 42.1 µM (inactive) | > 100 µM (inactive) | > 100 µM (inactive) | > 100 µM (inactive) | > 100 µM (inactive) | > 100 µM (inactive) | 
CN(C)CCCCC1CCN(CC(=O)N2c3ccccc3NC(=O)c3ccccc32)CC1 | > 100 µM (inactive) |  | > 100 µM (inactive) | > 100 µM (inactive) | > 100 µM (inactive) | > 100 µM (inactive) | > 100 µM (inactive) | > 100 µM (inactive) | 
CNC(=O)ON(C(C)=O)C(=O)NC [CARACEMIDE] | 95.1 µM (inactive) | 104 µM (inactive) | 41.3 µM (inactive) | 75.2 µM (inactive) |  | 133 µM (inactive) |  | 112 µM (inactive) | 97.7 µM (inactive)

— ChEMBL document CHEMBL1201862, “PubChem BioAssay data set” (2004)
